Active and inactive are the calls of the source.
Tests used:
[1] = molecular target: Voltage-gated inwardly rectifying potassium channel KCNH2 (Homo sapiens, UniProt Q12809); test: hERG protection from proarrhythmic block, potency, dose response, cell-based, thallium flux (AID 2121); type: ADME
[2] = molecular target: Peroxisome proliferator-activated receptor gamma/Nuclear receptor coactivator 1 (Homo sapiens, UniProt P37231); test: TR-FRET dose response biochemical High Throughput Screening assay for agonists of the steroid receptor coactivator 1 (SRC-1) recruitment by the peroxisome proliferator-activated receptor gamma (PPAR gamma): non-selective agonists. [Related pubchem assays (depositor defined):AID1300, AID1808, AID504735, AID631]; type: protein assay
Chain of Peroxisome proliferator-activated receptor gamma/Nuclear receptor coactivator 1 (P37231 whole entry): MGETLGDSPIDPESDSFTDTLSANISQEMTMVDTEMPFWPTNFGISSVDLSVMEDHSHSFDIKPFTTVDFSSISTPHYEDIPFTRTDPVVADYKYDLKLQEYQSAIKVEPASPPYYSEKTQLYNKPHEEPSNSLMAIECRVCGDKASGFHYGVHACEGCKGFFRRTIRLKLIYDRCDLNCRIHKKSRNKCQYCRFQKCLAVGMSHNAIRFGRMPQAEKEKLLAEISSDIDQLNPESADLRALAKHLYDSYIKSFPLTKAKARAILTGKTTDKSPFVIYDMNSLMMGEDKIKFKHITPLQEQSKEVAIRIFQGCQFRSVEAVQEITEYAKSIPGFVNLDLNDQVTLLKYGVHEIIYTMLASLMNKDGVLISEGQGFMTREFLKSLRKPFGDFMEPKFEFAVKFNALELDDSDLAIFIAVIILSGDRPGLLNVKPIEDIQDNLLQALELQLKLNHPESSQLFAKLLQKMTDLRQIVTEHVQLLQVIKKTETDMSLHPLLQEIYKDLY
Chain of Peroxisome proliferator-activated receptor gamma/Nuclear receptor coactivator 1 (Q15788 whole entry, further chain): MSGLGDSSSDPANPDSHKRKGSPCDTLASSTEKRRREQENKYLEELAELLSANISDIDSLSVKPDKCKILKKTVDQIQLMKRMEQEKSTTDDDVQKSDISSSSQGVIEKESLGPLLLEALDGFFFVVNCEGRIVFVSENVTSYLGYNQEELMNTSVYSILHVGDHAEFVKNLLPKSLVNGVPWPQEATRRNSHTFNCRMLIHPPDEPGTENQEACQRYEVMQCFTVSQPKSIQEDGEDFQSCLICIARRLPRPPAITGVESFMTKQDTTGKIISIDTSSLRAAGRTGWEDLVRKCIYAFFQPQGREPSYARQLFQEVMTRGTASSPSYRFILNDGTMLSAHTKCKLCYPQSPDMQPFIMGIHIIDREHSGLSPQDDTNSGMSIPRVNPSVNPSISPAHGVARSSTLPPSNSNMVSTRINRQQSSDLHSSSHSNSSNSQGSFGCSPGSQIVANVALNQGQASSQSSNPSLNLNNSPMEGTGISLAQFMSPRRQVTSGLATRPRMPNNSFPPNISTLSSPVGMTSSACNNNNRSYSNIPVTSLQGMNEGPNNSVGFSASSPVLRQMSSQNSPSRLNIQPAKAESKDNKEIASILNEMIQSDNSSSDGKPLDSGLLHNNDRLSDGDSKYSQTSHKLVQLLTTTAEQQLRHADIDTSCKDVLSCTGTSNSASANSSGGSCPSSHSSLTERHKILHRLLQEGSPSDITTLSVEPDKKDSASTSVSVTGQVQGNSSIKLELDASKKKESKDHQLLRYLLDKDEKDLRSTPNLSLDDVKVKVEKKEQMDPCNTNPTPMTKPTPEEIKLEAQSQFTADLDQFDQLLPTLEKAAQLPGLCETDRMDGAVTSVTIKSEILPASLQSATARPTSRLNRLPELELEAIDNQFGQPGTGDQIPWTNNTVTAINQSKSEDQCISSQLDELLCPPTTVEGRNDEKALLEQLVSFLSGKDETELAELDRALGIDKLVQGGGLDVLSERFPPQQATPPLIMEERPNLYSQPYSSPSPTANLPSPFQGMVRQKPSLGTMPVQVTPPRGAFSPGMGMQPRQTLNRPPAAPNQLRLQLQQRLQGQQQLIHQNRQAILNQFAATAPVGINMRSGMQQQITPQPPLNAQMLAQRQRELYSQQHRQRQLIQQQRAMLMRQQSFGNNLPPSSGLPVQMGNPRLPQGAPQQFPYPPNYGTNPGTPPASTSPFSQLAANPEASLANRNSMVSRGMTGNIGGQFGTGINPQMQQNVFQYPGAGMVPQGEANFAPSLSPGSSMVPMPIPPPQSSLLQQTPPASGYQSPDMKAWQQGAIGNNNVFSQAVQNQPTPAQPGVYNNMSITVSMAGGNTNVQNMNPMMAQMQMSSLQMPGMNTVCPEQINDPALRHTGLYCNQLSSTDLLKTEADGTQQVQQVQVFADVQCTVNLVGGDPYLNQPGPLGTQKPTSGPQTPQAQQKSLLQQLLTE

[3] = molecular target: Peroxisome proliferator-activated receptor gamma/Nuclear receptor coactivator 2 (Homo sapiens, UniProt P37231); test: (§1) TR-FRET dose response biochemical High Throughput Screening assay for agonists of the steroid receptor coactivator 2 (SRC-2) recruitment by the peroxisome proliferator-activated receptor gamma (PPAR gamma): non-selective agonists. [Related pubchem assays: 1297, 1032 ]; type: functional
[4] = molecular target: Peroxisome proliferator-activated receptor gamma/Nuclear receptor coactivator 3 (Homo sapiens, UniProt P37231); test: as §1, with “3 (SRC-3)” for “2 (SRC-2)”, “1301 (Confirmation screen.), 1048 (Primary screen.)]” for “1297, 1032 ]”; type: functional
Hexokinase HKDC1 = molecular target: T1, Hexokinase HKDC1 (Homo sapiens, UniProt Q2TB90); test: HKDC1 hexokinase activators, dose response, biochemical, W721R variant (AID 504730); type: functional
T1 sequence (Q2TB90 whole entry): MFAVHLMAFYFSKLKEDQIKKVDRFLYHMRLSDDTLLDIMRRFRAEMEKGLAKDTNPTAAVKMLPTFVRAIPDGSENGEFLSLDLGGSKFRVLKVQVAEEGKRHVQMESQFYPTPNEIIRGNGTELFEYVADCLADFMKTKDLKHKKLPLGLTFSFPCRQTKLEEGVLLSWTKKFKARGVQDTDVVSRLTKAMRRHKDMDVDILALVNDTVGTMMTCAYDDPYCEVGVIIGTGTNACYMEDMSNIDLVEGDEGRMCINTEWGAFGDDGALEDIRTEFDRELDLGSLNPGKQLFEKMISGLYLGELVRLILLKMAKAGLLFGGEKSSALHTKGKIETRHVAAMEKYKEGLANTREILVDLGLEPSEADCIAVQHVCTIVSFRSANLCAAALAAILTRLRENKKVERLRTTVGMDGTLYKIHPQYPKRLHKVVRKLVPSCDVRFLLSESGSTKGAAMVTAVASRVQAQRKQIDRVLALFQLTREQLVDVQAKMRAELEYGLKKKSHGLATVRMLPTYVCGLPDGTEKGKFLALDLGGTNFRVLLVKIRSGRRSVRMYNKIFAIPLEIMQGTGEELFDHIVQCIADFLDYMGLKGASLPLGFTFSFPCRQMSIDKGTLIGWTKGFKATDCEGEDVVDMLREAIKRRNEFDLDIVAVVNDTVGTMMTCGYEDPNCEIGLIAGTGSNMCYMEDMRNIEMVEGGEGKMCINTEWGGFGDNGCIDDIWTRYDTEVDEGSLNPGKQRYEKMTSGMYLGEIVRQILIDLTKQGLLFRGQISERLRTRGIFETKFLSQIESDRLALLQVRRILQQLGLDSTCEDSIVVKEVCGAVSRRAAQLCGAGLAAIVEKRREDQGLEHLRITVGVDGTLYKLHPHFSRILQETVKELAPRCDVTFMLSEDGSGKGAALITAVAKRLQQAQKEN

Hexokinase-1 = molecular target: T2, Hexokinase-1 (Homo sapiens, UniProt P19367); test: hexokinase 1 activators, dose response, selectivity assay for HKDC1 activator project, biochemical (AID 504762); type: functional
T2 sequence (P19367 whole entry): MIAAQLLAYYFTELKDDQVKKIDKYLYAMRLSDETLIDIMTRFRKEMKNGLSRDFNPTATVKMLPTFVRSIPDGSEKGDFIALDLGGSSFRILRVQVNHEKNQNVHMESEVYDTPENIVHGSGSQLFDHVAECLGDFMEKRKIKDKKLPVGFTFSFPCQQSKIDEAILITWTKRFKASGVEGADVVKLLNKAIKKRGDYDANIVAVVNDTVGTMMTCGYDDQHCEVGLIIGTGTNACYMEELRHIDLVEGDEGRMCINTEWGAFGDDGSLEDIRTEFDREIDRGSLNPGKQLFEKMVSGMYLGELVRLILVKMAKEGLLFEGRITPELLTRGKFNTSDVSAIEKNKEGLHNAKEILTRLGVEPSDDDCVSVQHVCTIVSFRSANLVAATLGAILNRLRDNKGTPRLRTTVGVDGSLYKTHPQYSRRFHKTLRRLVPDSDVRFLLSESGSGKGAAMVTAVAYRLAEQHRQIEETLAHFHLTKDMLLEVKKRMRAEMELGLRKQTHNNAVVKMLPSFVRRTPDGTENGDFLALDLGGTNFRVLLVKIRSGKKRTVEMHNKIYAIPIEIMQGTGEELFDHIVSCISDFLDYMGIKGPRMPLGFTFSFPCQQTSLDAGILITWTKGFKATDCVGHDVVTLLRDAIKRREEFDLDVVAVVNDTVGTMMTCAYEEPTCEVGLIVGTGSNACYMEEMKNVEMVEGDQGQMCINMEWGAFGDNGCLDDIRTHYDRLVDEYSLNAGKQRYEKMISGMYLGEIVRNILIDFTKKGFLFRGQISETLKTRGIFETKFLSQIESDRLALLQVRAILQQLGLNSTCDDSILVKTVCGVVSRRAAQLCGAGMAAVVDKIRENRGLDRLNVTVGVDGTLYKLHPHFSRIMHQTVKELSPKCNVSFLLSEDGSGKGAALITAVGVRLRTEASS

[5] = molecular target: G-protein coupled receptor 55 (Homo sapiens, UniProt Q9Y2T6); test: SAR Analysis of Selective Antagonists of GPR55 using an Image-Based Assay - Set 4. [Related pubchem assays (depositor defined):AID2013, AID2026]; type: functional;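 note: antagonism of response to 5 µM lysophosphatidylinositol agonist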
Chain of G-protein coupled receptor 55 (Q9Y2T6 whole entry): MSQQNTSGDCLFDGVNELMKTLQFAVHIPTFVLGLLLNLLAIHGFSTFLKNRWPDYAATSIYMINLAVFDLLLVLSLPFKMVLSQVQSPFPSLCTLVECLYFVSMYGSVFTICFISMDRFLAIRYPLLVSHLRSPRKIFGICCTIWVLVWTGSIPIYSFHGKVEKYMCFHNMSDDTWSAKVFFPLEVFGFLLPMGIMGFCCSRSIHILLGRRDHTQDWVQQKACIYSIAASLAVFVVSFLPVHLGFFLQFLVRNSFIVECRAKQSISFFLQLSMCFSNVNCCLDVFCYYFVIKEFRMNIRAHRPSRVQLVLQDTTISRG

Cannabinoid receptor 1 [6] = molecular target: T3, Cannabinoid receptor 1 (Homo sapiens, UniProt P21554); test: SAR analysis of antagonists of the Cannabinoid Receptor 1 using an Image-Based Assay - Set 4. [Related pubchem assays (depositor defined):AID2013, AID2026]; type: functional
T3 sequence (P21554 whole entry): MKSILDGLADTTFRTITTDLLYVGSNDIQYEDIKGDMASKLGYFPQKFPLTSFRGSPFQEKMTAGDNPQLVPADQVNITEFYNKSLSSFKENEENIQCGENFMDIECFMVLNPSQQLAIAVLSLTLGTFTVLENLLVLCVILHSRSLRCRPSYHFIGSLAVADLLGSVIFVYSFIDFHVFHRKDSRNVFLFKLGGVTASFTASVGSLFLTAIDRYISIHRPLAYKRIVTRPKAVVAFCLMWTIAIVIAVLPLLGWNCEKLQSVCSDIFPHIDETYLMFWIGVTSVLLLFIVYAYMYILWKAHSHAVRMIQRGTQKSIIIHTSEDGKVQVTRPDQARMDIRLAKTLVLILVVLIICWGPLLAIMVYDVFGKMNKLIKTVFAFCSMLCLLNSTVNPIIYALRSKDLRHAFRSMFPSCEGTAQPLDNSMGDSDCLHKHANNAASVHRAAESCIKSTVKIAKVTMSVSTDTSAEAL

[7] = molecular target: T4, G-protein coupled receptor 35 (Homo sapiens, UniProt Q9HC97); test: SAR analysis of Antagonists of the GPR35 Receptor using an Image-Based Assay - Set 6. [Related pubchem assays (depositor defined):AID2013, AID2026]; type: functional
T4 sequence (Q9HC97 whole entry): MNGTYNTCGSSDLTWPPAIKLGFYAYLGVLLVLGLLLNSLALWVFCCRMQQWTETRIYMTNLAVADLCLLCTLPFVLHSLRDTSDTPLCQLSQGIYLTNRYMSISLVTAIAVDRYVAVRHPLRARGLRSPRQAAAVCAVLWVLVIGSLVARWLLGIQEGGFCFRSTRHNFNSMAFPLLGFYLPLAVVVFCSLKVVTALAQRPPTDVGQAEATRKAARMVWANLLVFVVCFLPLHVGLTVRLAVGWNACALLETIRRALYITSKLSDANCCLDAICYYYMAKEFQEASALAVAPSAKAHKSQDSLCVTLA

Cannabinoid receptor 2 [8] = molecular target: T5, Cannabinoid receptor 2 (Homo sapiens, UniProt P34972); test: SAR analysis of antagonists of the Cannabinoid Receptor 2 using an Image-Based Assay - Set 3. [Related pubchem assays (depositor defined):AID2013, AID2026]; type: functional
T5 sequence (P34972 whole entry): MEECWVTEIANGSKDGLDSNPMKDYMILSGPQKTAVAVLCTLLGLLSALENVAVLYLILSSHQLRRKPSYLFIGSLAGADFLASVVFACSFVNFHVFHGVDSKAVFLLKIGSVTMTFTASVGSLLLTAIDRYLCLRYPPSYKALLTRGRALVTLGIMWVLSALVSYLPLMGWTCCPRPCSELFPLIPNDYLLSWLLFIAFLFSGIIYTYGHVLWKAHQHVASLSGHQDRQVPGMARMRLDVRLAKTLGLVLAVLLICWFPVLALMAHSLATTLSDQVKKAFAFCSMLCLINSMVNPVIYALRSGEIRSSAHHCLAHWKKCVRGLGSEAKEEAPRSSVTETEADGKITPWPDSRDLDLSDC

Cannabinoid receptor 1 [9] = molecular target: T3, Cannabinoid receptor 1; test: SAR analysis of agonists of the Cannabinoid Receptor 1 using an Image-Based Assay - Set 4. [Related pubchem assays (depositor defined):AID2013, AID2026]; type: functional
Cannabinoid receptor 2 [10] = molecular target: T5, Cannabinoid receptor 2; test: SAR analysis of agonists of the Cannabinoid Receptor 2 using an Image-Based Assay - Set 3. [Related pubchem assays (depositor defined):AID2013, AID2026]; type: functional
[11] = molecular target: T4, G-protein coupled receptor 35; test: SAR analysis of Agonists of the GPR35 Receptor using an Image-Based Assay - Set 4. [Related pubchem assays (depositor defined):AID2013, AID2026]; type: functional
[12] = molecular target: T6, Tyrosine-protein phosphatase non-receptor type 7 (Homo sapiens, UniProt P35236); test: HePTP (PTPN7) phosphatase inhibitor potency, SAR follow-up, biochemical, set 2 (AID 449736); type: functional
T6 sequence (P35236 whole entry): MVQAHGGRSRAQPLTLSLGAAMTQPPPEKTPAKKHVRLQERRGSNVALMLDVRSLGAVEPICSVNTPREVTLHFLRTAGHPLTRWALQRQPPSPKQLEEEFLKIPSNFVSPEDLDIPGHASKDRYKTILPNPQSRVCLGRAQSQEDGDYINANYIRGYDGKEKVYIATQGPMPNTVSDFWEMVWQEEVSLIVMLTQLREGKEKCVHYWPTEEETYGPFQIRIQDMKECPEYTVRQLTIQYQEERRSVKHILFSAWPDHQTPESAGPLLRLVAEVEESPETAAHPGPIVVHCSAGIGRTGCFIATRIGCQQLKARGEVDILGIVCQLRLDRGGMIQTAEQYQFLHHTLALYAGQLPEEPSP

[13] = molecular target: T7, Dual specificity protein phosphatase 6 (Rattus norvegicus, UniProt Q64346); type: functional;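 note: confirmatory in vitro dose-response testing of MKP-3 inhibition; recombinant His-tagged MKP-3 made in E. coli BL21 with OMFP substrate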
T7 sequence (Q64346 whole entry): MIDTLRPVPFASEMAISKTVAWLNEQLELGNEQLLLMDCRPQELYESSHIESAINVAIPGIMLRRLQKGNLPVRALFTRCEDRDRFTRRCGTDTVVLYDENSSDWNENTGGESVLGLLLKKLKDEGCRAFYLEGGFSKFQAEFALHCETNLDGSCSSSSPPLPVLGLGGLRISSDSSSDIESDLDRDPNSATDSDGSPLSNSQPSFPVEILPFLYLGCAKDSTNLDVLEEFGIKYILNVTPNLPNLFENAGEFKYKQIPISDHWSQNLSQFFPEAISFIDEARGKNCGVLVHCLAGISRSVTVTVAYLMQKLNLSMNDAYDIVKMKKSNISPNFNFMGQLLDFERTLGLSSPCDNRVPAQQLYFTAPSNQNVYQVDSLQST

[14] = molecular target: T8, Dual specificity protein phosphatase 3 (Homo sapiens, UniProt P51452); test: SAR VHR1 Fluorescent Assay for In Vitro dose response studies. [Related pubchem assays (depositor defined):AID1654, AID1661, AID1878, AID1992, AID2004, AID2070, AID2085]; type: functional
T8 sequence (P51452 whole entry): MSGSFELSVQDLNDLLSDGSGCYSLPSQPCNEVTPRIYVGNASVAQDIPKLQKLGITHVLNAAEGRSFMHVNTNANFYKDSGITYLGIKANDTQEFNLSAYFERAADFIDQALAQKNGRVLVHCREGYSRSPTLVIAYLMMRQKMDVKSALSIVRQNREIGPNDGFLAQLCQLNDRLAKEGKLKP

[15] = molecular target: Tyrosine-protein phosphatase non-receptor type 12 (Homo sapiens, UniProt Q05209); test: SAR Selectivity Analysis of small molecule inhibitors of PEST using pCAP in a fluorescence assay. [Related pubchem assays (depositor defined):AID1779, AID1784, AID2135]; type: functional
Chain of Tyrosine-protein phosphatase non-receptor type 12 (Q05209 whole entry): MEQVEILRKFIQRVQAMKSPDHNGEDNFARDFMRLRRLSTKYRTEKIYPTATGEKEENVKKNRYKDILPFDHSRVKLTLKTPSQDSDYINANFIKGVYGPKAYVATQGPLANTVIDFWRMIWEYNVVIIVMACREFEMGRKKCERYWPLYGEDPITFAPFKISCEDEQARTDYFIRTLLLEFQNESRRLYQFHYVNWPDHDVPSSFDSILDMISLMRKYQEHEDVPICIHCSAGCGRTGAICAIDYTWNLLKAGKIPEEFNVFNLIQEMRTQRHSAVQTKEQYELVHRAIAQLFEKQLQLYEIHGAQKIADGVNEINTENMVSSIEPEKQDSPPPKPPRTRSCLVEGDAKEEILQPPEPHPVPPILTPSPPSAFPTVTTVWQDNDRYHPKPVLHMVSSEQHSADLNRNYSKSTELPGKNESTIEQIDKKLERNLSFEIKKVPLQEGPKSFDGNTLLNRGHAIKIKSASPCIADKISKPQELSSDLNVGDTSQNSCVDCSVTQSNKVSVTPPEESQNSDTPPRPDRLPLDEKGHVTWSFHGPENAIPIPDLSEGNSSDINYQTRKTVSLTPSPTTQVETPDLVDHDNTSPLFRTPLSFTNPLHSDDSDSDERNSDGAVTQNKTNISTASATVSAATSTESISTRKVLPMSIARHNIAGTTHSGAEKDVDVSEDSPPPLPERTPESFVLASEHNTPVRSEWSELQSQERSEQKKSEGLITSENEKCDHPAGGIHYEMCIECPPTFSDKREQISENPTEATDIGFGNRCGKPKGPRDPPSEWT

[16] = molecular target: T9, Tyrosine-protein phosphatase non-receptor type 22 (Homo sapiens, UniProt Q9Y2R2); test: LYP (PTPN22) phosphatase inhibitor potency, SAR follow-up, biochemical, pCAP fluorogenic substrate, fluorescence, set 3 (AID 449727); type: functional
T9 sequence (Q9Y2R2 whole entry): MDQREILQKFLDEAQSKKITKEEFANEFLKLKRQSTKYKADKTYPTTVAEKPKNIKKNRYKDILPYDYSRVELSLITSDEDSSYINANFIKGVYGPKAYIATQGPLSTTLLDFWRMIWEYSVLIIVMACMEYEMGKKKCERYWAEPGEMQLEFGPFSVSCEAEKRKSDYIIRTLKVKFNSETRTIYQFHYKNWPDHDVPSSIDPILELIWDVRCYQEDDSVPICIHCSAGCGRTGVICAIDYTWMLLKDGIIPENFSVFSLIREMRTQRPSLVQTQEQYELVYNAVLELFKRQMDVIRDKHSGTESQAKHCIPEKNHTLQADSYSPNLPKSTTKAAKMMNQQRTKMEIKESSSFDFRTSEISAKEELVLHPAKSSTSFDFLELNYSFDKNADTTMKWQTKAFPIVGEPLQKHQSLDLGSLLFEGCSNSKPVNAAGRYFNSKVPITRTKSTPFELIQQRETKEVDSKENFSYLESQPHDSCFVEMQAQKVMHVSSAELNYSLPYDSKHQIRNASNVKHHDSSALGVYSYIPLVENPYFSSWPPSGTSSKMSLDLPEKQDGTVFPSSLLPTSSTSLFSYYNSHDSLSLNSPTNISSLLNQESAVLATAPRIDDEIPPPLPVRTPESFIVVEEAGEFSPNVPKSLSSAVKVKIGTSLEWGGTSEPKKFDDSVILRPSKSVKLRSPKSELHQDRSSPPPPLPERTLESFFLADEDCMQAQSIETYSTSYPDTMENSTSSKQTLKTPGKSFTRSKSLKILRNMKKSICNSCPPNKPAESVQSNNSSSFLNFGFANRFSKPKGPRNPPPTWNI

[17] = molecular target: T6, Tyrosine-protein phosphatase non-receptor type 7; test: redox-dependent HePTP inhibition, mechanism study, biochemical, fluorescence (AID 2068); type: functional
[18] = molecular target: T8, Dual specificity protein phosphatase 3; test: SAR VHR1 absorbance Assay for In Vitro dose response studies. [Related pubchem assays (depositor defined):AID1654, AID1661, AID1878, AID1992, AID2004]
[19] = molecular target: T9, Tyrosine-protein phosphatase non-receptor type 22; test: SAR LYP1 Fluorescent Assay using OMFP substrate for In Vitro dose response studies - Set 3. [Related pubchem assays (depositor defined):AID1779, AID1784, AID2140, AID2686]; type: functional

In the case of `O=C(NN1C(=O)/C(=C/c2nc3ccccc3[nH]2)SC1=S)c1cccc(Cl)c1`, the EC50 [1] was 7.01 µM (active), the EC50 [2] was > 79.4 µM (inactive) and the EC50 [3] was > 79.4 µM (not active). The EC50 [4] was > 79.4 µM (not active).
In the case of `O=NNc1nc2ccccc2n1Cc1ccccc1`, the EC50 (Hexokinase HKDC1) was 18.3 µM (active) and the EC50 (Hexokinase-1) was > 80 µM (inactive).
In the case of `CC(C)(C)c1ccc(-c2c(-c3nc4ccccc4[nH]3)n[nH]c2-c2ccccc2)cc1`, the IC50 [5] was 11.7 µM (inactive), the IC50 (Cannabinoid receptor 1 [6]) was 0.474 µM (active) and the IC50 [7] was > 32 µM (inactive). The IC50 (Cannabinoid receptor 2 [8]) was 13.9 µM (inactive), the EC50 (Cannabinoid receptor 1 [9]) was > 32 µM (inactive) and the EC50 (Cannabinoid receptor 2 [10]) was > 32 µM (inactive). For the same molecule, the EC50 [11] was > 32 µM (inactive).
For `CSc1ccc(OCC(=O)O)cc1C`, the IC50 [12] was > 100 µM (inactive), the IC50 [13] was > 99 µM (inactive) and the IC50 [14] was > 99 µM (inactive). The IC50 [15] was > 100 µM (inactive), the IC50 [16] was > 100 µM (inactive) and the IC50 [17] was > 100 µM (inactive). The IC50 [18] was > 100 µM (inactive) and the IC50 [19] was > 100 µM (inactive).

— ChEMBL document CHEMBL1201862, “PubChem BioAssay data set” (2004)
